Test results as given in US12465594B2 (Brown University, priority 2018, dated 2025).
“Also recorded” adds a separate entry of the source.

Tests used:
[1] = target: D4 (Homo sapiens, UniProt P21917); test: PDSP binding assay; conditions: 10 μM, quadruplicate, cloned target
[2] = target: T1, 5-HT1E (Homo sapiens, UniProt P28566); test: PDSP binding assay; conditions: 10 μM, quadruplicate, cloned target
T1 construct: NIMH Psychoactive Drug Screening Program (PDSP)

[3] = target: Alpha1B (Homo sapiens, UniProt P35368); test: PDSP binding assay; conditions: 10 μM, quadruplicate, cloned target
Chain of Alpha1B (P35368 whole entry): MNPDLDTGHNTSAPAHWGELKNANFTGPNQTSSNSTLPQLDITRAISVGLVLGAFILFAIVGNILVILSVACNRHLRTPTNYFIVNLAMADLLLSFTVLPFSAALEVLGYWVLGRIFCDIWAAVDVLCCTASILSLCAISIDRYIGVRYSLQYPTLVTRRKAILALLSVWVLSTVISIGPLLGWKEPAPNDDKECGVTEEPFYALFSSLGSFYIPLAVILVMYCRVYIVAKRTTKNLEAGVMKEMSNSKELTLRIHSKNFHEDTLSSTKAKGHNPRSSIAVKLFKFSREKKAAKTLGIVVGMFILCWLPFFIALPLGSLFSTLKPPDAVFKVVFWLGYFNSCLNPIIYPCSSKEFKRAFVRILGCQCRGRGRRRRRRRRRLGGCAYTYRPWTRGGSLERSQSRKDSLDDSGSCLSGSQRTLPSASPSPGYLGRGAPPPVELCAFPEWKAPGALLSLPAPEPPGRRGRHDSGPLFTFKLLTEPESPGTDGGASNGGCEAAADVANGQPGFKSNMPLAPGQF

[4] = target: M3 (Homo sapiens, UniProt P20309); test: PDSP binding assay; conditions: 10 μM, quadruplicate, cloned target
[5] = target: T2, 5-HT6 (Homo sapiens, UniProt P50406); test: PDSP binding assay; conditions: 10 μM, quadruplicate, cloned target
T2 construct: NIMH Psychoactive Drug Screening Program (PDSP)
T2 sequence (P50406 whole entry, species assumed): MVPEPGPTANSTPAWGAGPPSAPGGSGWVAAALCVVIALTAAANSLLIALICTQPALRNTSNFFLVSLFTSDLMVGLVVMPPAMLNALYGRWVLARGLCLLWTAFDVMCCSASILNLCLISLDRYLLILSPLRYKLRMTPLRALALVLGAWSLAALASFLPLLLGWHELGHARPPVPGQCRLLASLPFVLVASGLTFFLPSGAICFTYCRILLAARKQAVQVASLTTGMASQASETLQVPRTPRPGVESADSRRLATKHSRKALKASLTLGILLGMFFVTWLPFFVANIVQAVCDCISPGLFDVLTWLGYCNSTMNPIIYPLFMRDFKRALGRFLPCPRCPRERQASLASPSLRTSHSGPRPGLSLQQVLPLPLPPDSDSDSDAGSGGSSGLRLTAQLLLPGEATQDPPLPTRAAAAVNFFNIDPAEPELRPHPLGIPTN

[6] = Plasma protein binding (equilibrium dialysis); format: in vitro ADME; conditions: rat plasma
Text: Both compounds were then profiled for their plasma protein binding (PPB) and brain homogenate binding (BHB) to predict the unbound drug fraction in the plasma and brain respectively.

[7] = target: D3 (Homo sapiens, UniProt P35462); test: PDSP binding assay; conditions: 10 μM, quadruplicate, cloned target
Chain of D3 (P35462 whole entry): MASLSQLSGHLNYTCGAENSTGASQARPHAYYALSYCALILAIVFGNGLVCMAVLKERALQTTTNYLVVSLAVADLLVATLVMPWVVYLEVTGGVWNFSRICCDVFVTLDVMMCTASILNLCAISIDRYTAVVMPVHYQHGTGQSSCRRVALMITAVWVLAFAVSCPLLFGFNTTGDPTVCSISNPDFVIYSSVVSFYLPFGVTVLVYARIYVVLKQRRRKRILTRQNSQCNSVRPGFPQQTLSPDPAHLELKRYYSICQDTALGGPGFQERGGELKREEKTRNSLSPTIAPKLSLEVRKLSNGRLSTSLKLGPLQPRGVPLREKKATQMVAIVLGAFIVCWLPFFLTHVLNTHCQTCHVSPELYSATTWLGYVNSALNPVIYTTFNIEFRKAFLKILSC

[8] = target: M4 (Homo sapiens, UniProt P08173); test: PDSP binding assay; conditions: 10 μM, quadruplicate, cloned target
Chain of M4 (P08173 whole entry): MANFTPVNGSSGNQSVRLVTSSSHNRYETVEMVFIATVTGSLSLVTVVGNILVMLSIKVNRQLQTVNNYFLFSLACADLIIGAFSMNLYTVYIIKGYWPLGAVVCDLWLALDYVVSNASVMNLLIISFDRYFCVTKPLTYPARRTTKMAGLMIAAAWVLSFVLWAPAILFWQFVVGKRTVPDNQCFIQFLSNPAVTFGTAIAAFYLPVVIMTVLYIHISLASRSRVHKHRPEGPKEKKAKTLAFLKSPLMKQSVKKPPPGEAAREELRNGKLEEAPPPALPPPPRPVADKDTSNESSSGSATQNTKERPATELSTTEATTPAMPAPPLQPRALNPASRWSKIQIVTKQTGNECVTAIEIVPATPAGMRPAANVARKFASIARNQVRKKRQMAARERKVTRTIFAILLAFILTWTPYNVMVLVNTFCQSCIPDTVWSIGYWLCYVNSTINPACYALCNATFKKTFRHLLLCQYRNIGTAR

[9] = target: Alpha2C (Homo sapiens, UniProt P18825); test: PDSP binding assay; conditions: 10 μM, quadruplicate, cloned target
Chain of Alpha2C (P18825 whole entry): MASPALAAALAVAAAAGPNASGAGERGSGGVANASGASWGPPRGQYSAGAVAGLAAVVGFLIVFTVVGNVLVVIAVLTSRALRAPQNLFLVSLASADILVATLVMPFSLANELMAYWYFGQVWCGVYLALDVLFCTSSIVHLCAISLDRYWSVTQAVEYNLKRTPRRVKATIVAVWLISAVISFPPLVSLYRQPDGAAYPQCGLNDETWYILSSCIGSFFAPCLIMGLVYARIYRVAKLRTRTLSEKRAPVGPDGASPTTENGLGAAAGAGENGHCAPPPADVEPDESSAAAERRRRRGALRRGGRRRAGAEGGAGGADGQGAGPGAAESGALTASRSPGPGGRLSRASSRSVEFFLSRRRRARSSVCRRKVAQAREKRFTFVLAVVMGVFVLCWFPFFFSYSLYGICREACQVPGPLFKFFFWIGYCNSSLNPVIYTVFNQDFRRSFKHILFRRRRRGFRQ

[10] = target: Alpha1D (Homo sapiens, UniProt P25100); test: PDSP binding assay; conditions: 10 μM, quadruplicate, cloned target
Chain of Alpha1D (P25100 whole entry): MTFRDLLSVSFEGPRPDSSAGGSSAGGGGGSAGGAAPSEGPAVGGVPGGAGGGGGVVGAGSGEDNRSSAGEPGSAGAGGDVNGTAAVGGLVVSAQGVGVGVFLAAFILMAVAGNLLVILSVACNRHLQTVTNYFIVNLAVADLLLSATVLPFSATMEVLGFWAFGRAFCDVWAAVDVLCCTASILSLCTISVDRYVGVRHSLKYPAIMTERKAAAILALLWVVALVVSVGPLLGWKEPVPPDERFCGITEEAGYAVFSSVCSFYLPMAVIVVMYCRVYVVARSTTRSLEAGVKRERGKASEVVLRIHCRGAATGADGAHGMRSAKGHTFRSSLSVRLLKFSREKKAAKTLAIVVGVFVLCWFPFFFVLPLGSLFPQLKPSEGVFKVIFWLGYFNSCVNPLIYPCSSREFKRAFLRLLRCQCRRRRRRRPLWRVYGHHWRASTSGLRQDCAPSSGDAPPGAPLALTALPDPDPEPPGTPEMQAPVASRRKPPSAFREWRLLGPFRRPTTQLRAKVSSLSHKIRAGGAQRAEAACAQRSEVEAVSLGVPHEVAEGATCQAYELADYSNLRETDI

[11] = target: T3, 5-HT5A (Homo sapiens, UniProt P47898); test: PDSP binding assay; conditions: 10 μM, quadruplicate, cloned target
T3 construct: NIMH Psychoactive Drug Screening Program (PDSP)
T3 sequence (P47898 whole entry, species assumed): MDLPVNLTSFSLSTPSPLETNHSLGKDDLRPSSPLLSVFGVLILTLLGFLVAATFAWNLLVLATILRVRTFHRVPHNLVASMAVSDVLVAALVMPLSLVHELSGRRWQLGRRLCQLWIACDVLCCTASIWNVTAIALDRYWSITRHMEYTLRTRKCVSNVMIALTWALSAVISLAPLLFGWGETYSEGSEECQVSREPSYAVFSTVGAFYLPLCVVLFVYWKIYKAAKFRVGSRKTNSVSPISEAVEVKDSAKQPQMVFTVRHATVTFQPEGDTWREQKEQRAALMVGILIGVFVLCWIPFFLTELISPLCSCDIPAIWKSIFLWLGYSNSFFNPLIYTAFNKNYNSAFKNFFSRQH

[12] = target: H2 (Homo sapiens, UniProt P25021); test: PDSP binding assay; conditions: 10 μM, quadruplicate, cloned target
Chain of H2 (P25021 whole entry): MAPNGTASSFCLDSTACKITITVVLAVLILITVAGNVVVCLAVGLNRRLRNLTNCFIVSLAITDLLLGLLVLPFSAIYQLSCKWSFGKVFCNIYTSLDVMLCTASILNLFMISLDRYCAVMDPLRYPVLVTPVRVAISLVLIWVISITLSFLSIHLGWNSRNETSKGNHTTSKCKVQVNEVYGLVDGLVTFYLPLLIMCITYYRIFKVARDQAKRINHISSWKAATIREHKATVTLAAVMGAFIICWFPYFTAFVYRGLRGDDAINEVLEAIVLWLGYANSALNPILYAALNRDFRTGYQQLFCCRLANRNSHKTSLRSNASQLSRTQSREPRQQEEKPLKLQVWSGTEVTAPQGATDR

[13] = target: T4, CRFBP-CRF2 complex (Homo sapiens, UniProt P24387+Q13324); test: CRFBP-CRF2 Ca2+ assay (FDSS7000; dose-response, Schild analysis); format: cell-based; conditions: for CRF maximal response with increasing concentrations of compound / Mechanism of antagonism relative to CRF (Schild analysis): 1.11, 3.33, 10 μM compound; for Antagonism of the CRFBP-CRF2 response: dose-response in presence of EC80 CRF
T4 construct: FLAG (N); HA (N); expressed in transfected cells
T4 sequence (P24387+Q13324 with tags, fused parts or gaps): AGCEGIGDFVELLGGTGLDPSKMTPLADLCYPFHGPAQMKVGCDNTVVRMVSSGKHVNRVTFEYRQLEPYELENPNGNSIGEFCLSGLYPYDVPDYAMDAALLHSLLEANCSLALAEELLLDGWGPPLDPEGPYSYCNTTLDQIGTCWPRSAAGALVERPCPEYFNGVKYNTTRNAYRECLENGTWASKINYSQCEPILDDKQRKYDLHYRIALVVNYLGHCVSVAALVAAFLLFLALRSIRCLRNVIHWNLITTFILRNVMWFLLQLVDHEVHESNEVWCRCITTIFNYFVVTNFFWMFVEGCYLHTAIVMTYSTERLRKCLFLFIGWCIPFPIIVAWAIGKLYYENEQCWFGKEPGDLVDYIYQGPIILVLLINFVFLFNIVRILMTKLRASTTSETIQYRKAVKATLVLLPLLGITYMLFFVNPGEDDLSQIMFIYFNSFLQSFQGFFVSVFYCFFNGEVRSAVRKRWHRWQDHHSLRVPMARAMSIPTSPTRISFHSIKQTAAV
Description: CRFBP-CRF2 HEK293 cells (1,000 cells/6 μL per well) were plated in 1536-well black walled clear-bottom Poly-D-Lysine coated plates (Corning) in Assay Media (Dulbecco's Modified Eagle Medium (DMEM) (1×), phenol red free, 1% Defined Fetal Bovine Serum (FBS) (Hyclone), 1×Penicillin/Streptomycin (P/S), and 1×L-Glutamine) using a Multidrop Combi (Thermo). Cell plates were spun at 500 rpm for 1 minute in a centrifuge, covered with Kalypsys lids, and incubated overnight at 37° C. in the presence of 5% CO2. The following day, 2 μL per well of FLIPR Calcium 4 Dye (Molecular Devices), prepared in Assay Buffer (1×Hanks' balanced salt solution, 20 mM HEPES, 0.1% Bovine Serum Albumin [Sigma], and 2.5 mM probenecid [Sigma], pH 7.4) was added to each well of the assay plate at 0.5×according to the Manufacturer's Instructions using the Multidrop Combi (Thermo) dispenser and the cells were incubated in dye for 1 hour 37° C. in the presence of 5% CO2. Reagents are from Invitrogen unless otherwise stated.
Calcium flux was measured using a Functional Drug Screening System 7000 (FDSS7000; Hamamatsu, Tokyo, Japan). Baseline readings were taken (9 images at 1 Hz; excitation, 470±20 nm; emission, 540±30 nm), and then test compounds (approximately 53 nL) were added at the 10 second time-point using the FDSS's integrated 1536 well pin-tool from source library plates (Corning) containing 2 mM test compound stocks in 100% DMSO. […] Agonist “Hits” were selected by comparing the amplitude of the responses at the time of test compound addition to the CRF maximal response on each plate.
For confirmation screening, the CRFBP-CRF2 Ca^2+ assay was performed in the identical as the primary screen with the following exceptions. For each test compound, eight assay plates were prepared, each of which received a different concentration of test compound by pin-tool in the FDSS7000 Ca^2+ assay. For the agonist confirmation screening, compounds were tested at 53.0 μM, 26.5 μM, 13.3 μM, 6.63 μM, 3.31 μM, 1.66 μM, 0.828 μM, and 0.414 μM. For the antagonist confirmation screening, compounds were tested at 47.1 μM, 23.6 μM, 11.8 μM, 5.89 μM, 2.94 μM, 1.47 μM, 0.736 μM, and 0.368 μM.

[14] = target: MOR (Homo sapiens, UniProt P35372); test: PDSP binding assay; conditions: 10 μM, quadruplicate, cloned target
[15] = target: Beta3 (Homo sapiens, UniProt P13945); test: PDSP binding assay; conditions: 10 μM, quadruplicate, cloned target
[16] = system: Sigma 1; test: PDSP binding assay; conditions: 10 μM, quadruplicate, cloned target
[17] = target: KOR (Homo sapiens, UniProt P41145); test: PDSP binding assay; conditions: 10 μM, quadruplicate, cloned target
Chain of KOR (P41145 whole entry): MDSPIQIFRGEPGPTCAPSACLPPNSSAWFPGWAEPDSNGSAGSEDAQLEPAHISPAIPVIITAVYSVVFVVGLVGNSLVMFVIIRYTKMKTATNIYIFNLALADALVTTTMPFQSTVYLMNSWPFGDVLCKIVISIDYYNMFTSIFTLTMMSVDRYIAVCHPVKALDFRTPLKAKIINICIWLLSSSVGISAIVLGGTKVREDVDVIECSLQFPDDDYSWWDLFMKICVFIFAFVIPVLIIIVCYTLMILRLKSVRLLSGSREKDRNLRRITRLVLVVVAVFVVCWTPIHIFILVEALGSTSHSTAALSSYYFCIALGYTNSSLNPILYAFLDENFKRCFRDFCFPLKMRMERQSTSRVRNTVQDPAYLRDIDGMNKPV

[18] = target: H3 (Homo sapiens, UniProt Q9Y5N1); test: PDSP binding assay; conditions: 10 μM, quadruplicate, cloned target
[19] = target: H4 (Homo sapiens, UniProt Q9H3N8); test: PDSP binding assay; conditions: 10 μM, quadruplicate, cloned target
[20] = target: T5, 5-HT2B (Homo sapiens, UniProt P41595); test: PDSP binding assay; conditions: 10 μM, quadruplicate, cloned target
T5 construct: NIMH Psychoactive Drug Screening Program (PDSP)

[21] = target: Beta2 (Homo sapiens, UniProt P07550); test: PDSP binding assay; conditions: 10 μM, quadruplicate, cloned target
[22] = target: T6, D2 (Homo sapiens, UniProt P14416); test: PDSP binding assay; conditions: 10 μM, quadruplicate, cloned target
T6 construct: NIMH Psychoactive Drug Screening Program (PDSP)
T6 sequence (P14416 whole entry): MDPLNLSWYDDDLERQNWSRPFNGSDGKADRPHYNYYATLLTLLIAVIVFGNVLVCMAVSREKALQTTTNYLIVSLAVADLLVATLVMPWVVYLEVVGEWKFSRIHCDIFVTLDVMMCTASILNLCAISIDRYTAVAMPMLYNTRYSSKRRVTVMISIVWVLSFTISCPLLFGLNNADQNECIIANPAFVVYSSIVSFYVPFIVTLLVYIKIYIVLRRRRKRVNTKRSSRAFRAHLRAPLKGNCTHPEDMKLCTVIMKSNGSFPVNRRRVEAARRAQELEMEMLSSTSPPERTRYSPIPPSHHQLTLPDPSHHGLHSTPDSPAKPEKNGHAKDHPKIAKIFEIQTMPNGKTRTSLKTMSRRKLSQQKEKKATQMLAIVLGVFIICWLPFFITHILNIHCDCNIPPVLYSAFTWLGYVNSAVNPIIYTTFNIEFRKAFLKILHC

T1 sequence (P28566 whole entry, species assumed): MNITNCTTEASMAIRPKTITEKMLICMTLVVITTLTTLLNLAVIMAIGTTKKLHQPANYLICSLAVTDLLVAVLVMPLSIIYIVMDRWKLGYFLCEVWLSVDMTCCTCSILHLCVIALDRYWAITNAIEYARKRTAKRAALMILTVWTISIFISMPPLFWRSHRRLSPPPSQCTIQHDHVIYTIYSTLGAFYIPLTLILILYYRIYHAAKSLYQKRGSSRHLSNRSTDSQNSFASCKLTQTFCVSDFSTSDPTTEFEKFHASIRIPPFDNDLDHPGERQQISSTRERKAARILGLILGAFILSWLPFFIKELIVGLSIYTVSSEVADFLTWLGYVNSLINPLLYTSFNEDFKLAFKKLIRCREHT

Row | Structure (SMILES) | Activity at D4 (binding assay) [1] [%] | Activity at 5-HT1E (binding assay) [2] [%] | Activity at Alpha1B (binding assay) [3] [%] | Activity at M3 (binding assay) [4] [%] | Activity at 5-HT6 (binding assay) [5] [%] | Plasma protein binding, free [6] [% free] | Activity at D3 (binding assay) [7] [%] | Activity at M4 (binding assay) [8] [%] | Activity at Alpha2C (binding assay) [9] [%] | Activity at Alpha1D (binding assay) [10] [%] | Activity at 5-HT5A (binding assay) [11] [%] | Activity at H2 (binding assay) [12] [%] | CRF maximal response with increasing concentrations of compound [13] | Mechanism of antagonism relative to CRF (Schild analysis) [13] | Antagonism of the CRFBP-CRF2 response [13] | Activity at MOR (binding assay) [14] [%] | Activity at Beta3 (binding assay) [15] [%] | Activity at Sigma 1 (binding assay) [16] [%] | Activity at KOR (binding assay) [17] [%] | Activity at H3 (binding assay) [18] [%] | also measured
1 | CC(C)Cn1c(SCC(=O)N2CCc3ccccc3C2)nc2cc(Cl)ccc2c1=O [MLS-0219419] | −60 | 11 | −1 | 19 | 2 | 0.1 | −6 | −6 | −5 | −19 | 12 | 20 | decreased | noncompetitive interaction; also recorded: noncompetitively antagonize CRF responses | only inhibit the CRFBP-CRF2 response | −4 | 29 | 7 | −10 | −9 | Activity at H4 (binding assay) [19]: −15%; Activity at 5-HT2B (binding assay) [20]: 2%; Activity at Beta2 (binding assay) [21]: −13%; Activity at D2 (binding assay) [22]: −5%
2 | Brc1ccccc1-c1nnc(CSc2nnnn2-c2ccccc2)o1 [MLS-0046818] | −42 | 16 | 19 | 13 | 35 | 4.6 | −11 | −12 | 8 | −10 | −1 | 22 | decreased | noncompetitively antagonize CRF responses | only inhibit the CRFBP-CRF2 response | 12 | 27 | 8 | 85 | −15 | Mechanism of antagonism relative to CRF (Schild analysis) ([13]; listed as MLS-0046181): noncompetitive interaction; Activity at H4 (binding assay) [19]: 8%; Activity at 5-HT2B (binding assay) [20]: 67%; Activity at Beta2 (binding assay) [21]: 1%; Activity at D2 (binding assay) [22]: −13%
